Source: patent US12398121B2 (Nuvation Bio Inc., priority 2018, dated 2025)
pIC50, pKi: −log10 of the molar value. Read-outs that look alike come from different tables or passages of the source.

Assays:
[1] = target: Human recombinant PARP2 (Homo sapiens, UniProt Q9UGN5); experiment: RBC HotSpot PARP2 radioisotope-based filter binding assay; type: biochemical
Procedure: (§1) The following methods are for evaluating the in vitro biology properties of the test articles. • a. RBC HotSpot Poly(ADP-ribose) Polymerases 1 (PARP1) and Poly(ADP-ribose) Polymerases 2 (PARP2) Assays: The assay principle is radioisotope-based filter binding assay where incorporation of radioisotope-labeled NAD^+ into the substrate captured on filter is detected after washout free NAD^+. Data were analyzed using Excel and GraphPad Prism software for IC50 curve fits. Each assay was conducted with PJ34 as a positive control. • i. PARP1 assay: Human recombinant PARP1 at a final concentration of 2.5 nM was combined with histone H4 (20 μM) and test articles at various concentrations in reaction buffer (50 mM Tris-HCL, pH 8.0, 50 mM NaCl, 10 mM MgCl2, 1 mM DTT, 1% DMSO, and 20 μg/mL activated DNA). The solution was inoculated for 20 min at room temperature and the reaction initiated by adding [adenylate-^32P]-Nicotinamide Adenine Dinucleotide, ^32P-NAD^+ at a final concentration of 10 μM. After incubation for 2 hour at room temperature, the reaction mixture was filtered and washed with 0.75% phosphoric acid for radioactivity detection. • ii. PARP2 assay: Human recombinant PARP2 at a final concentration of 2.5 nM was combined with histone H3 (20 μM) and test articles at various concentrations in reaction buffer (50 mM Tris-HCL, pH 8.0, 50 mM NaCl, 10 mM MgCl2, 1 mM DTT, 1% DMSO, and 20 μg/mL activated DNA). The solution was inoculated for 20 min at room temperature and the reaction was initiated by adding [adenylate-^32P]-Nicotinamide Adenine Dinucleotide, ^32P-NAD^+ at a final concentration of 10 μM. After incubation for 2 hour at room temperature, the reaction mixture was filtered and washed with 0.75% phosphoric acid for radioactivity detection. • b. AR binding assay: AR in LNCaP cytosol was used for determining the binding affinity of test articles and the reference compound—progesterone (Sigma, Cat: E2785, St. Louis, MO). IC50s were determined using 8 concentrations/compound. Cytosol was plated at 200 μg/well (100 μL) into a 96-well conical polypropylene plate (Agilent, Cat: 5042-1385, Santa Clara, CA) and mixed with 3 μL of test compound. After adding 100 μL of ^3H-methyltrienolone (PerkinElmer, Cat: NET590250UC, San Jose, CA), the plate was sealed and shaken at 300 rpm at 4° C. for 24 hours. Post incubation, 100 μL of radioligand adsorption buffer containing 10 mM Tris-HCl, pH 7.4; 1.5 mM EDTA; 1 mM DTT; 0.25% charcoal; 0.0025% dextran was added to individual well. Plate was shaken for 15 min at 4′C followed by centrifugation at 3000 rpm for 30 min at 4° C. 150 μL of supernatant was transferred into scint-tube (PerkinElmer, Cat: 6000192) and mixed with 2 mL of Ultima Gold Cocktail (PerkinElmer, Cat: 6013329). Radioactivity was counted using a TriCarb 2910 TR scintillation counter (PerkinElmer). Inhibition of the radioactivity by test articles were calculated using the equation below: % Inhibition=(1−(Assay well−Average_LC)/(Average_HC−Average_LC))×100%.

[2] = target: Human recombinant PARP1 (Homo sapiens, UniProt P09874); experiment: RBC HotSpot PARP1 radioisotope-based filter binding assay; type: biochemical
Chain of Human recombinant PARP1 (P09874 whole entry): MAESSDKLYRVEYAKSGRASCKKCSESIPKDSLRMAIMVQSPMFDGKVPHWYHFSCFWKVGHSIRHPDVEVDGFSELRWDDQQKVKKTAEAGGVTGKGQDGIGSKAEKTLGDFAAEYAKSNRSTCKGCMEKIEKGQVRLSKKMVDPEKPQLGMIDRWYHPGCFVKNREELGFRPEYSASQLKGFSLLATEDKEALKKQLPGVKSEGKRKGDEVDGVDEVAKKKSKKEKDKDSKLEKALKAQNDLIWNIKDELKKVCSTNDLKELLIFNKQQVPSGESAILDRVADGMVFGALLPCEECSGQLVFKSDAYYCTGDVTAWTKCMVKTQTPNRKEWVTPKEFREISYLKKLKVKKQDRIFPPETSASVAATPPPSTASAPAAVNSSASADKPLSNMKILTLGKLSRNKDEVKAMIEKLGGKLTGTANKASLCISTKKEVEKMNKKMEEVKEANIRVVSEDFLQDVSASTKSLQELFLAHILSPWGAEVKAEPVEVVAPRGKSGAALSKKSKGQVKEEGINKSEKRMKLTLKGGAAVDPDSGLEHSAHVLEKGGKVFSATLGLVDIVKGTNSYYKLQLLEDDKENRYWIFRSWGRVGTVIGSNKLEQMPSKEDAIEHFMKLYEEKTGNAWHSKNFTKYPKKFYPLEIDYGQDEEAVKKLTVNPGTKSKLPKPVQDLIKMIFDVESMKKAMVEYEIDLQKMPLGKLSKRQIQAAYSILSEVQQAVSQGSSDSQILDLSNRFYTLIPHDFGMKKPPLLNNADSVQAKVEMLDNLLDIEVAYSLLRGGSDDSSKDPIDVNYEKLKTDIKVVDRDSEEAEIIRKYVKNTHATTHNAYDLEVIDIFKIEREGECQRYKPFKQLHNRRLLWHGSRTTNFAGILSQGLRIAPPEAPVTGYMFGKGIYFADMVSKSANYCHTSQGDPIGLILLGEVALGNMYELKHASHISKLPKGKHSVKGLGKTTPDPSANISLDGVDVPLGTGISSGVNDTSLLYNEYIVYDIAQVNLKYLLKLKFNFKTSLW
Procedure: as §1

[3] = target: T1, AR in LNCaP cytosol (Homo sapiens, UniProt P10275, T878A); experiment: AR binding assay (3H-methyltrienolone displacement)
T1 construct: endogenous in cells; host or cells: LNCaP cytosol
T1 sequence (P10275 1-920 T878A): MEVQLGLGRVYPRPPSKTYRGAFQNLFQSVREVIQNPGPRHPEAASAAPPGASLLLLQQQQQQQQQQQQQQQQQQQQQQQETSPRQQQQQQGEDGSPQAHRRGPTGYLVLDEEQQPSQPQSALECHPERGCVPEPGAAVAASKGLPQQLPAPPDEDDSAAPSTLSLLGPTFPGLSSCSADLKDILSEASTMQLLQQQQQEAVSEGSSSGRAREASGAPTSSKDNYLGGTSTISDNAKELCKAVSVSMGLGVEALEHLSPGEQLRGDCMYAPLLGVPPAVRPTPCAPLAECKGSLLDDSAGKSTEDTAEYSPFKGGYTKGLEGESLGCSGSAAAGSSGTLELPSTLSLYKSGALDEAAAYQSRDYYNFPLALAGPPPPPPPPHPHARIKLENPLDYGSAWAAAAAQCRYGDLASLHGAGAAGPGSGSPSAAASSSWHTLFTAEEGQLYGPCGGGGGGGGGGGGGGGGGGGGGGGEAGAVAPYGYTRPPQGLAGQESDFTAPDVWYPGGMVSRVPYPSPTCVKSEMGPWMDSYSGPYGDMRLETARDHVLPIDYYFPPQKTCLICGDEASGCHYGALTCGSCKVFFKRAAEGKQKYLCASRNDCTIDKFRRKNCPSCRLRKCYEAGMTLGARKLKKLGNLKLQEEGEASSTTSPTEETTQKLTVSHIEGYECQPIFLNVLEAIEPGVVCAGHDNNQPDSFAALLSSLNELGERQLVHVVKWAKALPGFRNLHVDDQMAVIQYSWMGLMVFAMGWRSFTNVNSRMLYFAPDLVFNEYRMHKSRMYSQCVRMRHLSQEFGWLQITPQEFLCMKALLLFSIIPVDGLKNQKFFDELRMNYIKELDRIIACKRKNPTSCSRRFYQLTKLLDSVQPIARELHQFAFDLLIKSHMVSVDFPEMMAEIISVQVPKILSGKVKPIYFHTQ
Procedure: as §1
IC50 values were calculated and graphed using the model “log(inhibitor) vs. response—Variable slope” included in GraphPad Prism 5 (San Diego, CA). The Ki values were further calculated using the equation below where [L] was the radioligand concentration (1 nM) using in this study. Kd value was 0.332 nM. Ki=IC50/(1+[L]/Kd) c. AR transactivation: Human AR cloned into a CMV vector backbone was used for the transactivation study. HEK-293 cells were plated at 80,000 cells per well of a 24 well plate in DME+5% csFBS. Twenty four hours later, the cells were transfected using Lipofectamine (Invitrogen, Carlsbad, CA) with 0.25 μg GRE-LUC, 0.01 μg CMV-LUC (renilla luciferase) and 25 ng of the AR in OPTIMEM medium. The cells were treated 24 hrs after transfection with various ligands (10^−12 to 10^−5 M final concentrations) and luciferase assay were performed 48 hours after transfection. […]

[4] = 2.5 nM enzyme, histone H3, 10 μM 32P-NAD+, read-out: PARP2 IC50
[5] = 2.5 nM enzyme, histone H4, 10 μM 32P-NAD+, read-out: PARP1 IC50
[6] = Ki=IC50/(1+[L]/Kd), [L] 1 nM, Kd 0.332 nM, read-out: AR Ki

Chain of Human recombinant PARP2 (Q9UGN5 whole entry): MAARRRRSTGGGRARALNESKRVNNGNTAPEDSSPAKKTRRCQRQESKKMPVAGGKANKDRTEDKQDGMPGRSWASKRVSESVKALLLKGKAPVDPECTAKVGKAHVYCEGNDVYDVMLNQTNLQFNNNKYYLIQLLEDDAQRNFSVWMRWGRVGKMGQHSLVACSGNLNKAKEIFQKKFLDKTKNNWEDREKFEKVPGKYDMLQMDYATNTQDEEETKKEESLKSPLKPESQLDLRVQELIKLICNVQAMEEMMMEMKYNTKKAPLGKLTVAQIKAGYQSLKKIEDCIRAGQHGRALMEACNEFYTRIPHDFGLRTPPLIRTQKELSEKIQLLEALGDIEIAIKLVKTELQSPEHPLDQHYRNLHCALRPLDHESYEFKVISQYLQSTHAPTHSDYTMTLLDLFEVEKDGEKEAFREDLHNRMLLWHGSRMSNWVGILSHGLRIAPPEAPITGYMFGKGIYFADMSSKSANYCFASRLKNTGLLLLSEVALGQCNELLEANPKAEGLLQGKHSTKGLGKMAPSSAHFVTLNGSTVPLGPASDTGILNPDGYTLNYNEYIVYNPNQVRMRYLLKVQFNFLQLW

Compound: C[C@](O)(CS(=O)(=O)c1ccc(NCCN2CCN(C(=O)c3cc(Cc4n[nH]c(=O)c5ccccc45)ccc3F)CC2)cc1)C(=O)Nc1ccc(C#N)c(C(F)(F)F)c1 [Compound 1.99, (R)-N-(4-cyano-3-(trifluoromethyl)phenyl)-3-(4-(2-(4-(2-fluoro-5-((4-oxo-3,4-dihydrophthalazin-1-yl)methyl)benzoyl)piperazin-1-yl)ethylamino)phenylsulfonyl)-2-hydroxy-2-methylpropanamide]
- pIC50 [1]: 9.70
- pIC50 [2]: 9.10
- pKi [3]: 6.71

Compound: C[C@]12CCC(=O)C[C@@H]1CC[C@@H]1[C@@H]2CC[C@@]2(C)[C@H]1CC[C@@]2(O)C#CC(=O)N1CCN(C(=O)c2cc(Cc3n[nH]c(=O)c4ccccc34)ccc2F)CC1 [Compound 1.116, 4-(4-fluoro-3-(4-(3-((5S,8R,9S,10S,13S,14S,17S)-17-hydroxy-10,13-dimethyl-3-oxohexadecahydro-1H-cyclopenta[a]phenanthren-17-yl)propioloyl)piperazine-1-carbonyl)benzyl)phthalazin-1(2H)-one]
- pIC50 [1, 4]: 9.70
- pIC50 [2, 5]: 9.30
- pKi [3, 6]: 5.30

Compound: C[C@]12CCC(O)C[C@@H]1CC[C@@H]1[C@@H]2CC[C@]2(C)[C@@H](OCCCCCC(=O)N3CCN(C(=O)c4cc(Cc5n[nH]c(=O)c6ccccc56)ccc4F)CC3)CC[C@@H]12 (stereo partly drawn) [Compound 1.111, 4-(4-fluoro-3-(4-(6-((5S,8R,9S,10S,13S,14S,17S)-3-hydroxy-10,13-dimethylhexadecahydro-1H-cyclopenta[a]phenanthren-17-yloxy)hexanoyl)piperazine-1-carbonyl)benzyl)phthalazin-1(2H)-one]
- pIC50 [1, 4]: 9.70
- pIC50 [2, 5]: 8.80
- pKi [3]: 7.44

Compound: C[C@]12CCC(=O)C[C@@H]1CC[C@@H]1[C@@H]2CC[C@@]2(C)[C@H]1CC[C@@]2(O)C#CCN1CCN(C(=O)c2cc(Cc3n[nH]c(=O)c4ccccc34)ccc2F)CC1 [Compound 1.118, 4-(4-fluoro-3-(4-(3-((5S,8R,9S,10S,13S,14S,17S)-17-hydroxy-10,13-dimethyl-3-oxohexadecahydro-1H-cyclopenta[a]phenanthren-17-yl)prop-2-ynyl)piperazine-1-carbonyl)benzyl)phthalazin-1(2H)-one]
- pIC50 [1, 4]: 9.00
- pIC50 [2, 5]: 7.87
- pKi [3, 6]: < 5.13

Compound: C[C@](O)(CS(=O)(=O)c1ccc(NCC(=O)N2CCN(C(=O)c3cc(Cc4n[nH]c(=O)c5ccccc45)ccc3F)CC2)cc1)C(=O)Nc1ccc(C#N)c(C(F)(F)F)c1 [Compound 1.98, (R)-N-(4-cyano-3-(trifluoromethyl)phenyl)-3-(4-(2-(4-(2-fluoro-5-((4-oxo-3,4-dihydrophthalazin-1-yl)methyl)benzoyl)piperazin-1-yl)-2-oxoethylamino)phenylsulfonyl)-2-hydroxy-2-methylpropanamide]
- pIC50 [1]: 10.00
- pIC50 [2]: 9.70
- pKi [3]: 6.74

Compound: C[C@]12CCC(=O)C[C@@H]1CC[C@@H]1[C@@H]2CC[C@@]2(C)[C@H]1CC[C@@]2(O)c1cn(CC(=O)N2CCN(C(=O)c3cc(Cc4n[nH]c(=O)c5ccccc45)ccc3F)CC2)nn1 [Compound 1.107, 4-(4-fluoro-3-(4-(2-(4-((5S,8R,9S,10S,13S,14S,17S)-17-hydroxy-10,13-dimethyl-3-oxohexadecahydro-1H-cyclopenta[a]phenanthren-17-yl)-1H-1,2,3-triazol-1-yl)acetyl)piperazine-1-carbonyl)benzyl)phthalazin-1(2H)-one]
- pIC50 [1, 4]: 10.00
- pIC50 [2, 5]: 9.52
- pKi [3, 6]: < 5.13

Compound: C[C@]12CCC(=O)C[C@@H]1CC[C@@H]1[C@@H]2CC[C@]2(C)[C@@H](OCC(=O)N3CCN(C(=O)c4cc(Cc5n[nH]c(=O)c6ccccc56)ccc4F)CC3)CC[C@@H]12 [Compound 1.110, 4-(3-(4-(2-((5S,8R,9S,10S,13S,14S,17S)-10,13-dimethyl-3-oxohexadecahydro-1H-cyclopenta[a]phenanthren-17-yloxy)acetyl)piperazine-1-carbonyl)-4-fluorobenzyl)phthalazin-1(2H)-one]
- pIC50 [1, 4]: 9.70
- pIC50 [2, 5]: 9.15
- pKi [3]: 7.22

Compound: C[C@]12CCC(F)(F)C[C@@H]1CC[C@@H]1[C@@H]2CC[C@]2(C)[C@@H](OCCCCCC(=O)N3CCN(C(=O)c4cc(Cc5n[nH]c(=O)c6ccccc56)ccc4F)CC3)CC[C@@H]12 [Compound 1.114, 4-(3-(4-(6-((5S,8R,9S,10S,13S,14S,17S)-3,3-difluoro-10,13-dimethylhexadecahydro-1H-cyclopenta[a]phenanthren-17-yloxy)hexanoyl)piperazine-1-carbonyl)-4-fluorobenzyl)phthalazin-1(2H)-one]
- pIC50 [1, 4]: 8.72
- pIC50 [2, 5]: 7.55
- pKi [3]: 7.72

Compound: C[C@]12CCC(=O)C[C@@H]1CC[C@@H]1[C@@H]2CC[C@@]2(C)[C@H]1CC[C@@]2(O)CCC(=O)N1CCN(C(=O)c2cc(Cc3n[nH]c(=O)c4ccccc34)ccc2F)CC1 (stereo in doubt) [Compound 1.117, 4-(4-fluoro-3-(4-(3-((5S,8R,9S,10S,13S,14S,17R)-17-hydroxy-10,13-dimethyl-3-oxohexadecahydro-1H-cyclopenta[a]phenanthren-17-yl)propanoyl)piperazine-1-carbonyl)benzyl)phthalazin-1(2H)-one]
- pIC50 [1, 4]: 10.00
- pIC50 [2, 5]: 9.52
- pKi [3]: 7.22
